experiment: in vitro; conditions: human, hela cells, % viability

Going from `Cn1cc(C(=O)N2CCCC3(C/C=C/COc4ccccc4C(=O)NCCNC3=O)C2)cn1` (centres unmarked) [CBK292102] to `O=C1NCCNC(=O)C2(C/C=C/COc3ccccc31)CCCNC2` (centres unmarked) [CBK292171], the viability at 28.5 h, 10 µM rises from 96.4% to 115%.

Going from `CC(=O)N1CCC2(C/C=C/C[C@H]3CN(C(=O)Cc4cccc(F)c4)CC[C@H]3NC(=O)CNC2=O)CC1` [CBK292103] to `COc1ccccc1CN1CC[C@H]2NC(=O)CNC(=O)C3(C/C=C/C[C@H]2C1)CCN(C(C)=O)CC3` [CBK292107], the viability at 28.5 h, 10 µM rises from 93.6% to 111%.

Compared with `O=C1N[C@H]2CCCN(C(=O)c3cncs3)[C@H]2CCCCCOc2ccccc21` [CBK292106], `Cn1cnc(C(=O)N2CCC[C@@H]3NC(=O)c4ccccc4OCCCCC[C@@H]32)c1` [CBK292122] is higher in viability at 28.5 h, 10 µM: 98.2% for the first, 114% for the second.

First: CC(=O)N1CCC2(C/C=C/C[C@H]3CN(C(=O)CC4CCOCC4)CC[C@H]3NC(=O)CNC2=O)CC1 [CBK292109]
Second: CC(=O)N1CCC2(C/C=C/C[C@H]3CN(C(=O)CCC4CCCC4)CC[C@H]3NC(=O)CNC2=O)CC1 [CBK292111]
The viability at 28.5 h, 10 µM of the first is higher: 98.8% for the first, 87% for the second.

`CN1C(=O)c2ccccc2OCCCCC[C@H]2[C@@H]1CCCN2C(=O)c1ccccc1Cn1cncn1` [CBK292114] and `CN1C(=O)COc2ccccc2CCCC[C@@H]2[C@H]1CCCN2C(=O)Cn1ccnc1` [CBK292152] are the same in viability at 28.5 h, 10 µM: 110% for the first, 110% for the second.

Compared with `Cc1noc(C)c1CCC(=O)N1CC[C@H]2NC(=O)COc3ccccc3C/C=C/C[C@H]2C1` [CBK292115], `O=C1COc2ccccc2C/C=C/C[C@H]2CN(C(=O)CN3CCCCCC3=O)CC[C@H]2N1` [CBK292116] is lower in viability at 28.5 h, 10 µM: 110% for the first, 89.7% for the second.

First: CC(=O)NC1(CC(=O)N2CC[C@H]3NC(=O)COc4ccccc4C/C=C/C[C@H]3C2)CCCCC1 [CBK292117]
Second: O=C1COc2ccccc2C/C=C/CC2(CCN(CC(=O)N3CCCC3)CC2)CN1 [CBK292126]
The viability at 28.5 h, 10 µM of the first is lower: 91.3% for the first, 93.7% for the second.

First: CN1C(=O)COc2ccccc2CCCC[C@@H]2[C@H]1CCCN2C(=O)CNS(C)(=O)=O [CBK292118]
Second: CN1C(=O)COc2ccccc2C/C=C/C[C@@H]2[C@H]1CCCN2C(=O)CCCNc1ncccn1 [CBK292168]
The viability at 28.5 h, 10 µM of the first is higher: 113% for the first, 112% for the second.

Going from `CC(=O)N1CC[C@H]2NC(=O)CNC(=O)C3(CCCC[C@H]2C1)CCN(Cc1ccc(Cl)cc1)CC3` [CBK292119] to `CCC(=O)N1CCC2(CCCC[C@H]3CN(C(C)=O)CC[C@H]3NC(=O)CNC2=O)CC1` [CBK292147], the viability at 28.5 h, 10 µM rises from 90.5% to 96.6%.

Going from `CC(=O)N1CC[C@H]2NC(=O)CNC(=O)C3(CCCC[C@H]2C1)CCN(C(=O)CN1CCCCC1)CC3` [CBK292120] to `CNCC(=O)N1CCC2(CCCC[C@H]3CN(C(C)=O)CC[C@H]3NC(=O)CNC2=O)CC1` [CBK292181], the viability at 28.5 h, 10 µM falls from 104% to 79.3%.

First: CC(=O)N1CCC2(CCCC[C@H]3CN(C(=O)C(C)C)CC[C@@H]3NC(=O)CNC2=O)CC1 [CBK292121]
Second: CC(=O)N1CCC2(CCCC[C@H]3CNCC[C@@H]3NC(=O)CNC2=O)CC1 [CBK292167]
The viability at 28.5 h, 10 µM of the first is higher: 102% for the first, 91.7% for the second.

Going from `CS(=O)(=O)NCC(=O)N1CCC2(CCCCOc3ccccc3C(=O)NCCNC2=O)CC1` [CBK292123] to `Cc1nn(C)cc1C(=O)N1CCC2(C/C=C/CCOc3ccccc3C(=O)NCCCNC2=O)CC1` [CBK292154], the viability at 28.5 h, 10 µM falls from 112% to 110%.

Going from `O=C1COc2ccccc2C/C=C/CC2(CCN(C(=O)CCc3cccnc3)CC2)CN1` [CBK292127] to `O=C1COc2ccccc2C/C=C/CC2(CCN(C(=O)CCn3ccnc3)CC2)CN1` [CBK292131], the viability at 28.5 h, 10 µM rises from 90.8% to 102%.

First: O=C1COc2ccccc2C/C=C/CC2(CCN(CC3CCOCC3)CC2)CN1 [CBK292128]
Second: O=C1NCC2(C/C=C/CCOc3ccccc31)CCN(Cc1ccccn1)CC2 [CBK292159]
The viability at 28.5 h, 10 µM of the first is higher: 104% for the first, 84.2% for the second.

Going from `CC(=O)N1CCC[C@H]2NC(=O)CNC(=O)C3(C/C=C/C[C@H]21)CCN(CC1CCC1)CC3` [CBK292129] to `CC(=O)N1CCC[C@H]2NC(=O)CNC(=O)C3(C/C=C/C[C@H]21)CCN(C(=O)C1CCC1)CC3` [CBK292177], the viability at 28.5 h, 10 µM rises from 103% to 109%.

Going from `O=C1CNC(=O)C2(C/C=C/C[C@H]3COCC[C@@H]3N1)CCN(Cc1ccc(Cl)cn1)CC2` [CBK292132] to `COCCN1CCC2(C/C=C/C[C@H]3COCC[C@H]3NC(=O)CNC2=O)CC1` [CBK292145], the viability at 28.5 h, 10 µM rises from 91% to 116%.

First: CC(=O)N1CCC[C@H]2NC(=O)CNC(=O)C3(C/C=C/C[C@H]21)CCN(CC(N)=O)CC3 [CBK292135]
Second: CC(=O)N1CCC[C@H]2NC(=O)CNC(=O)C3(C/C=C/C[C@H]21)CCNCC3 [CBK292173]
The viability at 28.5 h, 10 µM of the first is lower: 84.4% for the first, 89.8% for the second.

Compared with `O=C1CNC(=O)C2(C/C=C/C[C@H]3COCC[C@@H]3N1)CCN(CC(=O)N1CCCCC1)CC2` [CBK292137], `COCC(=O)N1CCC2(C/C=C/C[C@H]3COCC[C@@H]3NC(=O)CNC2=O)CC1` [CBK292158] is lower in viability at 28.5 h, 10 µM: 111% for the first, 95.2% for the second.

Going from `CC(=O)N1CCC2(C/C=C/C[C@H]3CN(CCO)CC[C@H]3NC(=O)CNC2=O)CC1` [CBK292139] to `CC(=O)N1CCC2(C/C=C/C[C@H]3CN(CCCc4ccccc4)CC[C@H]3NC(=O)CNC2=O)CC1` [CBK292140], the viability at 28.5 h, 10 µM falls from 92.8% to 90.9%.

First: CC(=O)N1CC[C@H]2NC(=O)CNC(=O)C3(CCCC[C@H]2C1)CCNCC3 [CBK292142]
Second: CC(=O)N1CCC2(CCCC[C@H]3CN(Cc4coc(C)n4)CC[C@@H]3NC(=O)CNC2=O)CC1 [CBK292165]
The viability at 28.5 h, 10 µM of the first is lower: 93.8% for the first, 101% for the second.

First: CN1C(=O)COc2ccccc2C/C=C/C[C@H]2NCCC[C@H]21 [CBK292156]
Second: Cn1ccnc1CN1CCC2(C/C=C/Cc3ccccc3OCC(=O)NCCNC2=O)CC1 [CBK292180]
The viability at 28.5 h, 10 µM of the first is lower: 80.9% for the first, 95.7% for the second.

First: CC(C)C(=O)N1CCC2(C/C=C/C[C@H]3COCC[C@H]3NC(=O)CNC2=O)CC1 [CBK292157]
Second: CC(=O)N[C@@H](CC[S+](C)[O-])C(=O)N1CCC2(C/C=C/C[C@@H]3COCC[C@@H]3NC(=O)[C@@H](CC(C)C)NC2=O)CC1 (some centres unmarked) [CBK292192]
The viability at 28.5 h, 10 µM of the first is lower: 95.8% for the first, 105% for the second.

First: O=C1N[C@H]2CCCN(C(=O)CCN3CCCC3)[C@H]2C/C=C/CCOc2ccccc21 [CBK292162]
Second: COc1ccc(C(=O)N2CCC[C@H]3NC(=O)COc4ccccc4C(=O)N[C@@H]4CCOC[C@@H]4C/C=C/C[C@@H]32)cc1 [CBK292194]
The viability at 28.5 h, 10 µM of the first is higher: 112% for the first, 102% for the second.

First: O=C1NCC2(C/C=C/CCOc3ccccc31)CCNCC2 [CBK292178]
Second: CN(C)C(=O)CN1CCC2(C/C=C/COc3ccccc3C(=O)NC[C@@H](Cc3ccccc3)NC2=O)CC1 [CBK292185]
The viability at 28.5 h, 10 µM of the first is lower: 104% for the first, 107% for the second.

First: Cn1nccc1C(=O)N1CCC2(C/C=C/COc3ccccc3C(=O)NC[C@@H](Cc3ccccc3)NC2=O)CC1 [CBK292183]
Second: N[C@@H](Cc1c[nH]c2ccccc12)C(=O)N1CC[C@H]2NC(=O)[C@@H](Cc3ccccc3)NC(=O)C3(C/C=C/C[C@@H]2C1)CCOCC3 [CBK292202]
The viability at 28.5 h, 10 µM of the first is lower: 99.8% for the first, 115% for the second.

First: O=C1N[C@@H]2CCN(Cc3cnccn3)C[C@H]2C/C=C/CC2(CCOCC2)C(=O)N[C@H]1Cc1ccccc1 [CBK292189]
Second: CC(C)[C@@H](N)C(=O)N1CC[C@@H]2NC(=O)[C@@H](Cc3ccccc3)NC(=O)C3(C/C=C/C[C@H]2C1)CCOCC3 [CBK292201]
The viability at 28.5 h, 10 µM of the first is lower: 97.3% for the first, 112% for the second.

Going from `CC(=O)N1CCC[C@@H]1C(=O)N1CC[C@@H]2NC(=O)[C@H](Cc3ccccc3)NC(=O)C3(C/C=C/C[C@@H]2C1)CCOCC3` [CBK292195] to `CC(=O)N[C@@H](Cc1c[nH]cn1)C(=O)N1CC[C@H]2NC(=O)[C@H](Cc3ccccc3)NC(=O)C3(C/C=C/C[C@H]2C1)CCOCC3` [CBK292206], the viability at 28.5 h, 10 µM rises from 104% to 116%.

First: CC(C)C[C@H]1NC(=O)C2(C/C=C/C[C@@H]3COCC[C@@H]3NC1=O)CCN(C(=O)[C@@H](N)Cc1c[nH]c3ccccc13)CC2 [CBK292200]
Second: CC(=O)Oc1ccc2c(=O)c(C3NC(C(=O)O)Cc4c3[nH]c3ccccc43)coc2c1 (centres unmarked) [CBK293948]
The viability at 28.5 h, 10 µM of the first is lower: 109% for the first, 120% for the second.

Going from `COCCOC(=O)C1=C(C)NC2=C(C(=O)CC(c3ccc(OC)cc3)C2)C1c1ccc(F)cc1` (centres unmarked) [CBK293921] to `COc1ccc(C2CC(=O)C3=C(C2)NC(C)=C(C#N)C3c2cccc(F)c2)cc1` (centres unmarked) [CBK293922], the viability at 28.5 h, 10 µM rises from 88.9% to 91.6%.

Compared with `O=C(COC(=O)c1cc(-c2ccc(Cl)cc2)nc2ccccc12)c1cccc([N+](=O)[O-])c1` [CBK293923], `COc1ccc(-c2cc(C(=O)NCc3cccnc3)c3cc(Br)ccc3n2)cc1` [CBK293958] is higher in viability at 28.5 h, 10 µM: 83% for the first, 86.1% for the second.

Compared with `Cc1ccc(OCC(=O)Nc2ncc(Cc3ccc(F)cc3)s2)cc1` [CBK293930], `COc1ccc(CNc2cnc3ccccc3c2)c(O)c1` [CBK293951] is higher in viability at 28.5 h, 10 µM: 82.2% for the first, 87.5% for the second.

First: COc1ccccc1N1CCN(c2cc(N3CCNCC3)ccc2[N+](=O)[O-])CC1 [CBK293931]
Second: COc1ccccc1NC(=O)C1=C(C)Nc2nnnn2C1c1ccc(OC)c([N+](=O)[O-])c1 (centres unmarked) [CBK293954]
The viability at 28.5 h, 10 µM of the first is higher: 85.1% for the first, 83.8% for the second.

Compared with `Cc1ccc(S(=O)(=O)n2c(SCc3ccccc3)nc3ccccc32)cc1` [CBK293933], `COc1ccc(C(NC(=O)CCc2ccccc2)c2ccc3cccnc3c2O)cc1` (centres unmarked) [CBK293942] is lower in viability at 28.5 h, 10 µM: 104% for the first, 86% for the second.

Going from `Cc1ccc(OCC(=O)N2N=C(CC(C)C)CC2(O)C(F)(F)F)cc1C` (centres unmarked) [CBK293935] to `CC1(C)CC(=O)c2cc(C(N)=O)c(=O)n(-c3ccc(Cl)cc3)c2C1` [CBK293936], the viability at 28.5 h, 10 µM falls from 91.5% to 88.8%.

Compared with `CCCCC(=O)NC(c1ccc(Cl)cc1)c1cc([N+](=O)[O-])c2cccnc2c1O` (centres unmarked) [CBK293938], `Cc1ccc(-c2cc(C(=O)NCc3cnn(C)c3)c3cc(Br)ccc3n2)cc1` [CBK293959] is lower in viability at 28.5 h, 10 µM: 90.1% for the first, 89.1% for the second.

Compared with `COc1ccc(NC(=O)N2CCCCC2c2cccnc2)cc1` (centres unmarked) [CBK293947], `CCC1SC2=NC(C)=C(C(=O)OCc3ccccc3)C(c3ccccc3)N2C1=O` (centres unmarked) [CBK293960] is lower in viability at 28.5 h, 10 µM: 102% for the first, 82.7% for the second.

First: NC(=O)C1CCN(C(=O)CSc2nc3ccccc3s2)CC1 [CBK293953]
Second: CCOC(=O)c1c(N)sc2c1CC(c1ccccc1)SC2c1ccccc1 (centres unmarked) [CBK293955]
The viability at 28.5 h, 10 µM of the first is higher: 95.2% for the first, 87.5% for the second.
